Values after ≈ are worked out from the molar mass of the structure shown. Where two headings read alike, the source gives them in different places. *1 amine or outer side, *2 acyl side, *3 side chain or, on linkers, in order; H or OH if unused. Where a SMILES comes first, the peptide text is derived from it. [ ]: non-standard residue; d: D form. The star is where a group is joined. X4 = C[N+](C)(C)CCNC(=O)CCOCCOCCOCCOCCn1nnc2c1CCCCCC2OCC(=O)*; Dolaproine = CO[C@@H]([C@@H]1CCCN1)[C@@H](C)C(=O)O; Dil = CC[C@H](C)[C@H](NC)[C@@H](CC(=O)O)OC; PABC = O=C(OCc1ccc(N[*:1])cc1)[*:2]; DBCO = C1#Cc2ccccc2N(*)Cc2ccccc21; X1 = C[C@@H](N*)[C@@H](O)c1ccccc1; Cit = NC(=O)NCCC[C@H](N)C(=O)O; PEG4 = NCCOCCOCCOCCOCCC(=O)O; Suc = O=C(CCC(=O)[*:2])[*:1]; NMeV = CN[C@H](C(=O)O)C(C)C
What was measured:
[1] = Solubility test in water, LCMS against standard curve
Procedure: The DMSO solution (1 mg/mL, 0.5 mL) was diluted with water (4.5 mL) to generate solution A (0.1 mg/mL, 5 mL, 0.5 mg). Solution A (0.1 mg/mL, 0.5 mL) was diluted with water (4.5 mL) to generate solution B (0.01 mg/mL, 5 mL, 0.05 mg). Solution B (0.01 mg/mL, 0.5 mL) was diluted with water (4.5 mL) to generate solution C (1 μg/mL, 5 mL, 5 μg). Solution C (1 μg/mL, 0.5 mL) was diluted with water (4.5 mL) to generate solution D (0.1 μg/mL, 5 mL, 0.5 μg). The testing sample (0.05 mg) was suspended in water (1 mL), and was sonicated for 5-30 min to dissolve the sample. If no clear solution was observed, the resulting suspension was centrifuged and the clear supernatant solution was collected for analysis. All the standard solutions A, B, C, D and sample solutions were tested using same method on the same LC-MS instrument. Solubility was assessed by LCMS and calculated based on a standard curve.

[2] = pH stability in buffers, determined by LC-MS; assay type: physicochemical
Procedure: pH stability was assessed as follows. 0.1 mg of sample was dissolved into 0.2-0.3 mL of DMSO, and the resulting solution was added dropwise into different pH buffers (1 mL) while maintain clear solutions during testing time period. The samples were collected from several time points (e.g., over 72 hours), and pH stability was determined by LC-MS. pH buffer was prepared as follows: pH 8.0 sodium borate buffer: Add 9.534 g Sodium borate decahydrate, 1.461 g Sodium chloride, and 0.393 g DTPA to 900 mL distilled water, make sure all powers dissolve completely, then make final volume to 1 L by adding water. pH 7.4 sodium borate buffer: Add […], 9.534 g Sodium borate decahydrate, 1.461 g Sodium chloride, and 0.393 g DTPA to 900 mL distilled water, make sure all powers dissolve completely, then make final volume to 1 L by adding water. pH 5.0 succinate acid buffer: Add 10 mM succinate acid to 150 mL distilled water, and then change the pH to pH5.0 by adding 0.5M NaOH, then make final volume to 250 mL by adding water. pH 7.4 PBS buffer: commercially available. Stability was assessed at 72 hours by LCMS.

Human liver Cathepsin B = Human liver Cathepsin B (Homo sapiens, UniProt P07858); assay: Cathepsin B cleavage assay of linker-payloads
Procedure: For the assay, the linker-payload stock solution (10 mM of linker-payload in DMSO) was added into a solution of 100 mM NaOAc, 10 mM dithiothreitol, at pH5 to obtain a 50 μM substrate solution. […] The Cathepsin B and substrate solution was mixed with and without 10 mM of a Cathepsin B inhibitor (CA074; APE Bio, Cat #A1926), and incubated at 37° C. for 4 hours. Following the 4 hour incubation, acetic acid and then acetonitrile were added to stop the reaction. The quenched samples then underwent centrifugation at 14,000 rpm. Aliquots of the resultant supernatants were then diluted with equal volume of water and analyzed by LC/MS to determine the amount of payload released.

[3] = Solubility (mg/mL), in water, Table 3-1
[4] = pH7.4 and 8 buffer, RT, Table 3-1
[5] = Solubility (mg/mL), in water, Table 3
[6] = pH7.4 or 8 buffer, room temperature, Table 3

Compound | solubility [1, 3] [µg/mL] | pH Stability [2, 4] | CapB cleavage rate (%) at 4 hrs (Human liver Cathepsin B; Table 1D) [%] | solubility [1, 5] [µg/mL] | pH Stability [2, 6] | CapB cleavage rate (%) at 4 hrs (Human liver Cathepsin B; Table 1C) [%] | solubility [1] [µg/mL]
CC[C@H](C)[C@@H]([C@@H](CC(=O)N1CCC[C@H]1[C@H](OC)[C@@H](C)C(=O)N[C@H](C)[C@@H](O)c1ccccc1)OC)N(C)C(=O)[C@@H](NC(=O)[C@H](C(C)C)N(C)C(=O)OCc1ccc(NC(=O)[C@H](CCCNC(N)=O)NC(=O)[C@@H](NC(=O)[C@@H](CCCCNC(=O)COC2CCCCCc3c2nnn3CCOCCOCCOCCOCCOCCP(=O)(O)O)NC(=O)CCOCCOCCOCCOCCNC(=O)CCC(=O)N2Cc3ccccc3C#Cc3ccccc32)C(C)C)cc1)C(C)C (some centres unmarked) | 250 (≈ 108 µM) | Y (stable in pH7.4 and 8 buffer at RT for more than 3 days) | 50 | – | – | – | –
CCCC1O[C@@H]2C[C@H]3[C@@H]4C[C@H](F)C5=CC(=O)C=C[C@]5(C)[C@@]4(F)[C@@H](O)C[C@]3(C)[C@]2(C(=O)CNC(=O)OCc2ccc(NC(=O)[C@H](CCCNC(N)=O)NC(=O)[C@@H](NC(=O)[C@@H](CCCCNC(=O)COC3CCCCCc4c3nnn4CCOCCOCCOCCOCCC(=O)NCCS(=O)(=O)O)NC(=O)CCOCCOCCOCCOCCNC(=O)CCC(=O)N3Cc4ccccc4C#Cc4ccccc43)C(C)C)cc2)O1 (some centres unmarked) [1e] | > 10000 | Y (stable in pH7.4 and 8 buffer at RT for more than 3 days) | 79.6 | > 10000 | Y (stable in pH7.4 or 8 buffer at room temperature for more than 3 days) | 79.6 | –
CCCC1O[C@@H]2C[C@H]3[C@@H]4C[C@H](F)C5=CC(=O)C=C[C@]5(C)[C@@]4(F)[C@@H](O)C[C@]3(C)[C@]2(C(=O)CNC(=O)OCc2ccc(NC(=O)[C@H](CCCNC(N)=O)NC(=O)[C@@H](NC(=O)[C@@H](CCCCNC(=O)COC3CCCCCc4c3nnn4CCN(CC(=O)NCCS(=O)(=O)O)CC(=O)NCCS(=O)(=O)O)NC(=O)CCOCCOCCOCCOCCNC(=O)CCC(=O)N3Cc4ccccc4C#Cc4ccccc43)C(C)C)cc2)O1 (some centres unmarked) [1f] | – | – | 63.0 | – | – | 63.0 | –
CCCC1O[C@@H]2C[C@H]3[C@@H]4C[C@H](F)C5=CC(=O)C=C[C@]5(C)[C@@]4(F)[C@@H](O)C[C@]3(C)[C@]2(C(=O)COc2ccc(NC(=O)[C@H](C)NC(=O)[C@@H](NC(=O)[C@@H](CCCCNC(=O)COC3CCCCCc4c3nnn4CCOCCOCCOCCOCCC(=O)NCCS(=O)(=O)O)NC(=O)CCOCCOCCOCCOCCNC(=O)CCC(=O)N3Cc4ccccc4C#Cc4ccccc43)C(C)C)cc2)O1 (some centres unmarked) [1j] | > 10000 | Y (stable in pH7.4 and 8 buffer at RT for more than 3 days) | 30.8 | > 10000 | Y (stable in pH7.4 or 8 buffer at room temperature for more than 3 days) | 30.8 | –
CCCC1O[C@@H]2C[C@H]3[C@@H]4C[C@H](F)C5=CC(=O)C=C[C@]5(C)[C@@]4(F)[C@@H](O)C[C@]3(C)[C@]2(C(=O)COc2ccc(NC(=O)[C@H](CCCNC(N)=O)NC(=O)[C@@H](NC(=O)[C@@H](CCCCNC(=O)COC3CCCCCc4c3nnn4CCOCCOCCOCCOCCC(=O)NCCS(=O)(=O)O)NC(=O)CCOCCOCCOCCOCCNC(=O)CCC(=O)N3Cc4ccccc4C#Cc4ccccc43)C(C)C)cc2)O1 (some centres unmarked) [1k] | > 1000 | Y (stable in pH7.4 and 8 buffer at RT for more than 3 days) | 31.0 | > 1000 | Y (stable in pH7.4 or 8 buffer at room temperature for more than 3 days) | 31.0 | –
CC(C)[C@H](NC(=O)[C@@H](CCCCNC(=O)COC1CCCCCc2c1nnn2CCOCCOCCOCCOCCC(=O)NCCS(=O)(=O)O)NC(=O)CCOCCOCCOCCOCCNC(=O)CCC(=O)N1Cc2ccccc2C#Cc2ccccc21)C(=O)N[C@@H](C)C(=O)Nc1ccc2c(c1)[C@@]1(C)CCC[C@](C)(C(=O)NC(=O)[C@@]3(C)CCC[C@]4(C)c5cc(O)ccc5CC[C@@H]34)[C@@H]1CC2 (some centres unmarked) [1m] | – | – | 44.2 | – | – | 44.2 | –
CC(C)[C@H](NC(=O)[C@@H](CCCCNC(=O)COC1CCCCCc2c1nnn2CCOCCOCCOCCOCCC(=O)NCCS(=O)(=O)O)NC(=O)CCOCCOCCOCCOCCNC(=O)CCC(=O)N1Cc2ccccc2C#Cc2ccccc21)C(=O)N[C@@H](CCCNC(N)=O)C(=O)Nc1ccc(COC(=O)N[C@@H](CO)C(=O)Nc2ccc3c(c2)[C@@]2(C)CCC[C@](C)(C(=O)NC(=O)[C@@]4(C)CCC[C@]5(C)c6cc(O)ccc6CC[C@@H]45)[C@@H]2CC3)cc1 (some centres unmarked) [1q] | – | Y (stable in pH7.4 and 8 buffer at RT for more than 3 days) | 30.4 | – | – | – | 170 (≈ 75.7 µM)
CC(C)[C@H](NC(=O)CCOCCOCCOCCOCCNC(=O)CCC(=O)N1Cc2ccccc2C#Cc2ccccc21)C(=O)N[C@@H](C)C(=O)Nc1ccc2c(c1)[C@@]1(C)CCC[C@](C)(C(=O)NC(=O)[C@@]3(C)CCC[C@]4(C)c5cc(O)ccc5CC[C@@H]34)[C@@H]1CC2 [10b, 1-(4-{2-Azatricyclo[10.4.0.0^4,9]hexadeca-1(12),4(9),5,7,13,15-hexaen-10-yn-2-yl}-4-oxobutanamido)-N-[(1 S)-1-{[(1 S)-1-{[(4bS,8S,8aR)-8-{[(1 S,4aS,10aR)-6-hydroxy-1,4a-dimethyl-1,2,3,4,4a,9,10,10a-octahydrophenanthrene-1-carbonyl]carbamoyl}-4b,8-dimethyl-4b,5,6,7,8,8a,9,10-octahydrophenanthren-3-yl]carbamoyl}ethyl]carbamoyl}-2-methylpropyl]-3,6,9,12-tetraoxapentadecan-15-amide] | – | – | – | – | – | – | < 100
CCCC1O[C@@H]2C[C@H]3[C@@H]4C[C@H](F)C5=CC(=O)C=C[C@]5(C)[C@@]4(F)[C@@H](O)C[C@]3(C)[C@]2(C(=O)COc2ccc(NC(=O)OCc3ccc(NC(=O)[C@H](CCCNC(N)=O)NC(=O)[C@@H](NC(=O)[C@@H](CCCCNC(=O)COC4CCCCCc5c4nnn5CCOCCOCCOCCOCCC(=O)NCC[N+](C)(C)C)NC(=O)CCOCCOCCOCCOCCNC(=O)OC[C@@H]4[C@@H]5CCC#CCC[C@@H]54)C(C)C)cc3)cc2)O1 (some centres unmarked) [IIIe] | > 10000 | Y (stable in pH7.4 and 8 buffer at RT for more than 3 days) | – | – | – | – | –
CC[C@H](C)[C@@H]([C@@H](CC(=O)N1CCC[C@H]1[C@H](OC)[C@@H](C)C(=O)N[C@H](C)[C@@H](O)c1ccccc1)OC)N(C)C(=O)[C@@H](NC(=O)[C@H](C(C)C)N(C)C(=O)OCc1ccc(NC(=O)[C@H](CCCNC(N)=O)NC(=O)[C@@H](NC(=O)[C@@H](CCCCNC(=O)COC2CCCCCc3c2nnn3CCOCCOCCOCCOCCC(=O)NCC[N+](C)(C)C)NC(=O)CCOCCOCCOCCOCCNC(=O)CCC(=O)N2Cc3ccccc3C#Cc3ccccc32)C(C)C)cc1)C(C)C (some centres unmarked) [Ib] ({DBCO-Suc-PEG4}-[dK](X4)V[Cit][PABC][NMeV]V[Dil][Dolaproine]-X1) | – | – | 65 | – | – | – | –

Source: US20240408223A1 (REGENERON PHARMACEUTICALS, INC., priority 2017, published 2024)
